This is an account of results in US6583137B1, “Protease inhibitors” (SmithKline Beecham Corporation, priority 1999, dated 2003).

A short description of this data set: Chiral / configurational stability at the carbon alpha to the ketone. The class given is physicochemical.

As for `[2H]C1(NC(=O)[C@H](CC(C)C)NC(=O)c2cnc3ccccc3n2)CCCN(S(=O)(=O)c2cccc[n+]2[O-])C([2H])([2H])C1=O` (stereo partly drawn) [present compound, quinoxaline-2-carboxylic acid {(S)-3-methyl-1-[(2,2′,4-trideuterio)-3-oxo-1-(1-oxy-pyridine-2-sulfonyl)-azepan-4-ylcarbamoyl]-butyl}amide], the “configurational stability at the carbon center alpha to the ketone” value (compared to the corresponding 5 and 6 membered ring compounds) is on record as “configurationally more stable”. The chiral stability entry (compared to the protonated isomer) was “superior chiral stability”.
